Laboratory results taken from patent publication US20190161516A1, “PROTEASOME INHIBITORS” (University of Kentucky Research Foundation, priority 2017, published 2019).
pIC50: −log10 of the molar value.

Key:
[1] = test system: neuronal tissues from the brains of APPsw mice; test: Cresyl violet staining of neuronal tissues; assay type: in vivo; conditions: APPsw mouse model, FIG. 10
Description: Since LMP2 inhibitors had no effects on Aβ or tau aggregation, we wondered if these compounds are simply protecting neurons from cell death caused by Aβ or LPS. To examine this, we performed Cresyl violet staining experiments on neuronal tissues isolated from the brains of APPsw mice.
Frozen brain tissues were cut into 30 μm sections by using cryostat microtome (Leica CM1850; Leica Microsystems, Korea). The pieces of brain were thoroughly washed with PBS to remove the excess fixative agent, and then transferred to gelatin coated slices and stained with 0.1% Cresyl violet (2-5 minutes) to identify cortical layers and cytoarchitectural features of isocortical region. Next, the sections were washed with distill water and dehydrated by using ascending grades of ethanol (50%, 70%, 90%, and 100%) for 2 min in each grade followed by a 1-min immersion in a 1:1 mixture of absolute alcohol and xylene. The sections were then rinsed with xylene for 5-10 min and mounted with mounting medium (CYTOSEAL™ XYL; Thermo Scientific, USA). The tissue was photographed (100×) in the same areas.

[2] = test system: reactive astrocytes and microglia; test: Immunohistochemical analysis of hippocampal tissues (GFAP, Iba1); assay type: in vivo, mouse
Description: Activation of neuroglia is closely linked to neuroinflammation, which is reported to be one of major factors involved in the development and progression of AD. Therefore, we set out to investigate whether LMP2 inhibitors could block the activation of astrocytes and microglia. We performed immunohistochemical analysis of hippocampal tissues isolated from the brains of both APPsw and LPS-induced mice, using GFAP and Iba1 as standard markers for reactive astrocytes and microglial, respectively.
Frozen tissues were cut into 30 μm thick sections and stored free floating in cryoprotectant solution (30% ethylenglycol, 20% glycerol, 50 mM sodium phosphate buffer, pH 7.4) at 4° C. until further use. For immunohistological staining, sections were rinsed in 1×PBS, incubated in blocking buffer (1×PBS containing 0.3% Triton X-100 and 10% normal goat serum) for 1 hr at room temperature and primary antibodies for GFAP (1:1000; Abcam) and Iba-1 (1:500; Abcam) were diluted in 1×PBS/0.3% triton X-100/5% normal goat serum and incubated over night at 4° C. […] Fluorescence imaging was performed using an Olympus XM10 monochrome fluorescence CCD camera (Olympus, Germany).

[3] = biological target: T1, LMP7/β5i (Homo sapiens, UniProt P20618+P28062); test: Proteasome activity assay, purified 20S proteasome, Ac-ANW-AMC; assay type: biochemical
T1 construct: purchased R&D Systems
Experimental: Purified 20S human proteasomes (CP and IP, R&D Systems) were used to assess the in vitro inhibition of proteasome catalytic activity by LMP2 inhibitors. […] Reactions were initiated by the addition of fluorogenic substrates containing the AMC (7-amino-4-methylcoumarin) group. Specifically, the following substrates were used: Suc-LLVY-AMC (CT-L activity, 100 μM), Ac-PAL-AMC (LMP2, 100 μM), Ac-WLA-AMC (β5, 20 μM), Ac-nLPnLD-AMC (β1,100 μM), Ac-RLR-AMC (β2/2i, 20 μM), and Ac-ANW-AMC (β5i, 100 μM). The fluorescence of liberated AMC was measured over a period of 90 min at 360 and 460 nm on a SpectraMax M5 fluorescence plate reader (Molecular Devices). For the proteasome activity of brain tissues isolated from AD mice, tissues were homogenized in RIPA buffer (50 mM Tris Cl, pH 7.4, 150 mM NaCl, 5 mM EDTA, 1% Nonidet P-40, 1% sodium deoxycholate, 0.1% SDS, 1% aprotinin, 50 mM NaF) and sonicated. Samples were centrifuged for 40 min at 14,000×g (4° C.). Protein concentration was determined using the Bradford Assay according to the manufacturer's protocol. Finally, samples were loaded onto a 96-well plate followed by the addition of the substrate (Ac-PAL-AMC) at 37° C. Fluorescence was recorded for 90 min using a Synergy-HT (Bio Tek) plate reader.

[4] = test system: COX-2; test: COX-2 expression by immunohistochemical analysis of hippocampal tissues; assay type: in vivo; conditions: hippocampal tissues from APPsw mouse, FIG. 11A right panel
Experimental: To directly verify the role of LMP2 in neuroinflammation pathways, we measured the expression of COX-2 by immunohistochemical analysis of hippocampal tissues from APPsw mouse.
Frozen tissues were cut into 30 μm thick sections and stored free floating in cryoprotectant solution (30% ethylenglycol, 20% glycerol, 50 mM sodium phosphate buffer, pH 7.4) at 4° C. until further use. For immunohistological staining, sections were rinsed in 1×PBS, incubated in blocking buffer (1×PBS containing 0.3% Triton X-100 and 10% normal goat serum) for 1 hr at room temperature and primary antibodies for GFAP (1:1000; Abcam) and Iba-1 (1:500; Abcam) were diluted in 1×PBS/0.3% triton X-100/5% normal goat serum and incubated over night at 4° C. Sections were washed with 1×PBS to wash off excessive primary antibodies, incubated with species specific peroxidase-coupled secondary antibodies (goat anti-mouse or goat anti-rabbit (1:300, Abcam)) diluted in 1×PBS/0.3% Triton X-100/5% normal goat serum and incubated for 1 h on a shaker at RT before developed with liquid diaminobezadine (DAB) (Dako, K3647). Sections were counterstained with matured hematoxylin, followed by dehydration in an ascending alcohol series before covered using Roti®-Histokitt II mounting medium. […] Fluorescence imaging was performed using an Olympus XM10 monochrome fluorescence CCD camera (Olympus, Germany).

For CC(=O)NCC(=O)N1CCC[C@H]1C(=O)N[C@@H](Cc1ccccc1)C(=O)N[C@@H](CC(C)C)C(=O)[C@@]1(C)CO1 [YU102], the neuroprotective effects [1] was “no neuroprotective effects”, the activation of astrocytes ([2]; GFAP, FIG. 11A) was “inhibits activation of astrocytes” and the activation of microglia ([2]; Iba1, FIG. 11B) was “inhibits activation of microglia”. The pIC50 [3] was < 5.00 and the COX-2 upregulation [4] was “significantly curtails COX-2 upregulation”.
